# Reference: patent US20220169660A1, “CYCLIC AMINO-PYRAZINECARBOXAMIDE COMPOUNDS AND USES THEREOF” (SILVERBACK THERAPEUTICS, INC., priority 2019, published 2022)
# Assays:
# [1] = test system: TGFβ/SMAD Singling Pathway SBE reporter cell line; test: TGFβ reporter assay (in vitro small molecule screening); assay type: cell-based; conditions: SBE luciferase reporter cells, TGFβ stimulation, 18 h, luminescence
# Experimental: TGFβ/SMAD Singling Pathway SBE reporter cell line was obtained from BPS Bioscience. Cells were passed, expanded, and stored in liquid nitrogen as per the supplier's instructions with the exception that growth media is changed to DMEM-C with Geneticin (DMEM supplemented with 10% fetal bovine serum, 1×NEAA, 1 mM Pyruvate, 2 mM glutamine, 50 μg/mL penicillin, 50 U/mL streptomycin and 400 μg/mL of Geneticin). The assay media was MEM supplemented with […] fetal bovine serum, 1×NEAA, 1 mM Pyruvate, 50 μg/mL penicillin and 50 U/mL streptomycin.
# Test samples (at desired concentrations diluted in assay media) were added to a 96-well assay plate, 20 μL per well. Reporter cells were harvested from the tissue culture flasks by incubation in small quantity of PBS at 37° C. for two minutes after the media in the flask is removed and cells rinsed with PBS. Cells were counted and diluted in the assay media at approximately 0.5×10^6 cells/mL and then 80 μL/well of cells were added to the assay plate containing the 20 μL/well of test samples (or media only), and incubated for approximately 5-6 hours at 37° C. in a 5% CO2 humidified incubator. After that time, 15 μL of TGFβ diluted to 12 ng/mL in the assay media was added to the plate. Controls included TGFβ titration (from 50 to 0 ng/mL) without inhibitors, and media only (without cells, inhibitor or TGFβ). Plates were incubated at 37° C. in a 5% CO2 humidified incubator for 18 h. Luciferase substrate solution is subsequently added at 100 μL per well, incubated in the dark at room temperature for 15 min, and luminescence is measured using a luminometer. EC50 values and curve fits were obtained using Prism (GraphPad Software).
# TGFBR2 = target: T1, TGFBR2 (Homo sapiens, UniProt P37173); test: TGFBR2 RBC enzyme assay (Reaction Biology Corp.); assay type: biochemical
# T1 construct: purchased Reaction Biology Corp
# T1 sequence (P37173 23-567): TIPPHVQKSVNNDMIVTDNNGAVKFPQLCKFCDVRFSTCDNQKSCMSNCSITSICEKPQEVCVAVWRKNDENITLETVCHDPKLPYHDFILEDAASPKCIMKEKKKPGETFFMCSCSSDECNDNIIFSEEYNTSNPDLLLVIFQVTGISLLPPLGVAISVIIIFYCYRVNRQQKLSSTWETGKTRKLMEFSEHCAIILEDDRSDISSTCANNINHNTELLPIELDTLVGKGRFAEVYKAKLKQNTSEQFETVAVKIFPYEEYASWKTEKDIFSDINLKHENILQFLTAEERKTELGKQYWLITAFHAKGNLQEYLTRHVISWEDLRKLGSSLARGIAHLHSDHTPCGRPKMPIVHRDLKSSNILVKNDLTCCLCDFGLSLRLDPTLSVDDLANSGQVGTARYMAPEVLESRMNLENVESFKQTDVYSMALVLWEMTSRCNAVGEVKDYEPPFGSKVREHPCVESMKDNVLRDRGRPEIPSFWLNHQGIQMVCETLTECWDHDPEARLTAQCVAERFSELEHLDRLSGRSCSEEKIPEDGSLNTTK
# Experimental: Compounds of the disclosure were assayed by Reaction Biology Corp. using the TGFBR2 RBC enzyme assay.
SMILES,EC50 [1],EC50 (TGFBR2)
"CC(C)(C)OC(=O)N1C[C@@H]2C[C@@H]1COc1cccc(c1)-c1cnc(N)c(n1)C(=O)Nc1cnccc1O2 (racemic) [Compound 35, (±)-tert-butyl(5^2,5^4-trans)-1^5-amino-9-oxo-3,6-dioxa-8-aza-1(2,6)-pyrazina-7(4,3)-pyridina-5(2,4)-pyrrolidina-2(1,3)-benzenacyclononaphane-51-carboxylate]",> 5000 nM,> 1000 nM
"Nc1ncc2nc1C(=O)Nc1cnccc1O[C@@H]1CN[C@@H](COc3cccc-2c3)C1 (racemic) [Compound 36, (±)-(5^2,5^4-trans)-1^5-amino-3,6-dioxa-8-aza-1(2,6)-pyrazina-7(4,3)-pyridina-5(2,4)-pyrrolidina-2(1,3)-benzenacyclononaphan-9-one]",> 5000 nM,> 1000 nM
"CC(C)(C)OC(=O)N1C[C@H]2C[C@H]1COc1ccncc1NC(=O)c1nc(cnc1N)-c1cccc(c1)O2 (racemic) [Compound 39, (±)-tert-butyl(4^3,4^5-trans)-1^5-amino-9-oxo-3,6-dioxa-8-aza-1(2,6)-pyrazina-7(4,3)-pyridina-4(3,5)-pyrrolidina-2(1,3)-benzenacyclononaphane-41-carboxylate]",> 5000 nM,> 1000 nM
"Nc1ncc2nc1C(=O)Nc1cnccc1OC[C@@H]1C[C@H](CN1)Oc1cccc-2c1 (racemic) [Compound 40, (±)-(4^3,4^5-trans)-1^5-amino-3,6-dioxa-8-aza-1(2,6)-pyrazina-7(4,3)-pyridina-4(3,5)-pyrrolidina-2(1,3)-benzenacyclononaphan-9-one]",1000 to 5000 nM,> 1000 nM
"Nc1ncc2nc1C(=O)Nc1cnccc1NCCOCCOCCOc1cccc-2c1 [Compound 1, 2^5-amino-9,12,15-trioxa-4,6-diaza-2(2,6)-pyrazina-5(3,4)-pyridina-1(1,3)-benzenacyclopentadecaphan-3-one]",> 5000 nM,> 1000 nM
"Nc1ncc2nc1C(=O)Nc1cnccc1NCCCCOc1cccc-2c1 [Compound 2, 2^5-amino-11-oxa-4,6-diaza-2(2,6)-pyrazina-5(3,4)-pyridina-1(1,3)-benzenacycloundecaphan-3-one]",> 5000 nM,> 1000 nM
"Nc1ncc2nc1C(=O)Nc1cnccc1NCCCCCOc1cccc-2c1 [Compound 3, 2^5-amino-12-oxa-4,6-diaza-2(2,6)-pyrazina-5(3,4)-pyridina-1(1,3)-benzenacyclododecaphan-3-one]",> 5000 nM,> 1000 nM
"Nc1ncc2nc1C(=O)Nc1cnccc1NCCOCCOCCOCCOc1cccc-2c1 [Compound 7, 2^5-amino-9,12,15,18-tetraoxa-4,6-diaza-2(2,6)-pyrazina-5(3,4)-pyridina-1(1,3)-benzenacyclooctadecaphan-3-one]",> 5000 nM,> 1000 nM
"Nc1ncc2nc1C(=O)Nc1cnccc1N1CCOC(COc3cccc-2c3)C1 (stereo not drawn) [Compound 8, 5^3-amino-7-oxa-3-aza-1(4,2)-morpholina-5(2,6)-pyrazina-2(4,3)-pyridina-6(1,3)-benzenacyclooctaphan-4-one]",1000 to 5000 nM,100 to 1000 nM
"Cc1cc2cc(c1)-c1cnc(N)c(n1)C(=O)Nc1cnccc1N(C)CCCO2 [Compound 10, 2^5-amino-1^5,6-dimethyl-10-oxa-4,6-diaza-2(2,6)-pyrazina-5(3,4)-pyridina-1(1,3)-benzenacyclodecaphan-3-one]",1 to 1000 nM,1 to 100 nM
"Nc1ncc2nc1C(=O)Nc1cnccc1N1CCC(CCOc3cccc-2c3)C1 (stereo not drawn) [Compound 24, 2^5-amino-9-oxa-4-aza-2(2,6)-pyrazina-5(3,4)-pyridina-6(1,3)-pyrrolidina-1(1,3)-benzenacyclononaphan-3-one]",> 5000 nM,–
"CN1CCCC(=O)Nc2cccc(c2)-c2cnc(N)c(n2)C(=O)Nc2cnccc21 [Compound 28, 2^5-amino-6-methyl-4,6,11-triaza-2(2,6)-pyrazina-5(3,4)-pyridina-1(1,3)-benzenacycloundecaphane-3,10-dione]",> 5000 nM,–
"Nc1ncc2nc1C(=O)Nc1cnccc1S(=O)(=O)CCCOc1ccc(Br)c-2c1 [Compound 52, 2^5-amino-1^6-bromo-10-oxa-6-thia-4-aza-2(2,6)-pyrazina-5(3,4)-pyridina-1(1,3)-benzenacyclodecaphan-3-one 6,6-dioxide]",> 5000 nM,–
"CN1CCCN(C)c2ccncc2NC(=O)c2nc(cnc2N)-c2ccc(OCCCN)c(c2)C1=O [Compound 54, 2^5-amino-1^4-(3-aminopropoxy)-6,10-dimethyl-4,6,10-triaza-2(2,6)-pyrazina-5(3,4)-pyridina-1(1,3)-benzenacycloundecaphane-3,11-dione]",> 5000 nM,–

# Continued, values first:
EC50 [1],EC50 (TGFBR2),SMILES
1 to 1000 nM,100 to 1000 nM,"CC(C)(C)OC(=O)N1C[C@@H]2C[C@H]1COc1cccc(c1)-c1cnc(N)c(n1)C(=O)Nc1cnccc1O2 (racemic) [Compound 37, (±)-tert-butyl(5^2,5^4-cis)-1^5-amino-9-oxo-3,6-dioxa-8-aza-1(2,6)-pyrazina-7(4,3)-pyridina-5(2,4)-pyrrolidina-2(1,3)-benzenacyclononaphane-51-carboxylate]"
1 to 1000 nM,1 to 100 nM,"Nc1ncc2nc1C(=O)Nc1cnccc1O[C@@H]1CN[C@H](COc3cccc-2c3)C1 (racemic) [Compound 38, (±)-(5^2,5^4-cis)-1^5-amino-3,6-dioxa-8-aza-1(2,6)-pyrazina-7(4,3)-pyridina-5(2,4)-pyrrolidina-2(1,3)-benzenacyclononaphan-9-one]"
1 to 1000 nM,–,"CC(C)(C)OC(=O)N1C[C@@H]2C[C@H]1COc1ccncc1NC(=O)c1nc(cnc1N)-c1cccc(c1)O2 (racemic) [Compound 41, (±)-tert-butyl(4^3,4^5-cis)-1^5-amino-9-oxo-3,6-dioxa-8-aza-1(2,6)-pyrazina-7(4,3)-pyridina-4(3,5)-pyrrolidina-2(1,3)-benzenacyclononaphane-41-carboxylate]"
1 to 1000 nM,100 to 1000 nM,"Nc1ncc2nc1C(=O)Nc1cnccc1OC[C@@H]1C[C@@H](CN1)Oc1cccc-2c1 (racemic) [Compound 42, (±)-(4^3,4^5-cis)-1^5-amino-3,6-dioxa-8-aza-1(2,6)-pyrazina-7(4,3)-pyridina-4(3,5)-pyrrolidina-2(1,3)-benzenacyclononaphan-9-one]"
1 to 1000 nM,1 to 100 nM,"Nc1ncc2nc1C(=O)Nc1cnccc1NCCCOc1cccc-2c1 [Compound 4, 2^5-amino-10-oxa-4,6-diaza-2(2,6)-pyrazina-5(3,4)-pyridina-1(1,3)-benzenacyclodecaphan-3-one]"
1 to 1000 nM,1 to 100 nM,"CN1CCCCOc2cccc(c2)-c2cnc(N)c(n2)C(=O)Nc2cnccc21 [Compound 5, 2^5-amino-6-methyl-11-oxa-4,6-diaza-2(2,6)-pyrazina-5(3,4)-pyridina-1(1,3)-benzenacycloundecaphan-3-one]"
1 to 1000 nM,1 to 100 nM,"CN1CCCOc2cccc(c2)-c2cnc(N)c(n2)C(=O)Nc2cnccc21 [Compound 6, 2^5-amino-6-methyl-10-oxa-4,6-diaza-2(2,6)-pyrazina-5(3,4)-pyridina-1(1,3)-benzenacyclodecaphan-3-one]"
1 to 1000 nM,1 to 100 nM,"CN1CCCCCOc2cccc(c2)-c2cnc(N)c(n2)C(=O)Nc2cnccc21 [Compound 9, 2^5-amino-6-methyl-12-oxa-4,6-diaza-2(2,6)-pyrazina-5(3,4)-pyridina-1(1,3)-benzenacyclododecaphan-3-one]"
